Data taken from patent publication US20240124442A1, “TRICYCLIC-AMIDO-BICYCLIC PRMT5 INHIBITORS” (AMGEN INC., priority 2021, published 2024).

Columns and labels:
HCT116 WT cells = experiment: HCT116 WT (parent) cell line proliferation / cell viability (CellTiter-Glo, 6 days); assay type: cell-based; details: Homo sapiens, HCT-116, 144 h, 6 days treatment
Summary of the method: (§1)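 Isogenic HCT116 pair (parental and MTAP-knockout) in RPMI 1640 + 10% FBS, treated 6 days with 8–9-point 1:3 dilutions from 1 or 10 μM top, or 22-point 1:2 dilutions from 10 or 50 μM top. Viability by CellTiter-Glo luminescence; IC50 from 4-parameter logistic fit or sigmoidal fit with Hill slope fixed at −1.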

HCT116 MTAP null cells = experiment: HCT116 MTAP null cell line proliferation / cell viability (CellTiter-Glo, 6 days); assay type: cell-based; details: 144 h; HCT116 MTAP null cells, 6 days treatment, CellTiter-Glo cell viability; read-out: HCT-116 MTAP null IC50
Summary of the method: as §1

IC50 (HCT116 WT cells) [nM]	IC50 (HCT116 MTAP null cells) [nM]	Structure (SMILES)
501	10	CN(C(=O)c1ccc2nc(N)c3cnn(C)c3c2c1)[C@@H]1COCc2cc(C(F)(F)F)ncc21 [Example 500, 4-amino-N,1-dimethyl-N-((4S)-7-(trifluoromethyl)-3,4-dihydro-1H-pyrano[4,3-c]pyridin-4-yl)-1H-pyrazolo[4,3-c]quinoline-8-carboxamide]
1400	15	CCn1cc(-c2ccc3c(c2)OC[C@H]3N(C)C(=O)c2ccc3nc(N)c4cnn(C)c4c3c2)cn1 [Example 639, 4-amino-N-((3S)-6-(1-ethyl-1H-pyrazol-4-yl)-2,3-dihydro-1-benzofuran-3-yl)-N,1-dimethyl-1H-pyrazolo[4,3-c]quinoline-8-carboxamide]
11500	223	CN(C(=O)c1cc2c(cc1F)nc(N)c1cnn(C)c12)[C@@H]1CC(C)(C)Cc2nc(C(F)(F)F)ccc21 (single isomer, unassigned) [Example 434]
6680	2510	CN(C(=O)c1ccc2nc(N)c3c(c2c1)COC3)[C@H]1CCc2cc(OC(F)(F)F)ccc21 (single isomer, unassigned) [Example 532]
1250	28	Cc1nc2nc(N)c3cnn(C)c3c2cc1C(=O)N(C)[C@@H]1COCc2nc(C(F)(F)F)ccc21 [Example 301, 4-amino-N,1,7-trimethyl-N-((5S)-2-(trifluoromethyl)-5,8-dihydro-6H-pyrano[3,4-b]pyridin-5-yl)-1H-pyrazolo-[4,3-c][1,8]naphthyridine-8-carboxamide]
8300	995	Cc1nn(C)c2c1c(N)nc1cc(F)c(C(=O)N(C)[C@H]3COc4cc(S(F)(F)(F)(F)F)ccc43)cc12 (single isomer, unassigned) [Example 392]
34900	2860	CN(C(=O)c1ccc2nc(N)c3cnn(C)c3c2c1)[C@H]1CCc2nc(C(F)(F)F)ccc21 (single isomer, unassigned) [Example 364]
976	19	CCN(C(=O)c1ccc2nc(N)c3c(c2c1)COC3)[C@@H]1COCc2cc(Br)ccc21 (single isomer, unassigned) [Example 580]
10000	1980	CCN(C(=O)c1cc2c3c(c(N)nc2cn1)COC3)[C@H]1COCc2cc(Br)ccc21 (single isomer, unassigned) [Example 588]
16600	553	N#CCN(C(=O)c1cc2c3c(c(N)nc2cn1)COC3)C1COc2cc(C(F)(F)F)ccc21 (racemic) [Example 208, 4-amino-N-(cyanomethyl)-N-((3R)-6-(trifluoromethyl)-2,3-dihydro-1-benzofuran-3-yl)-1,3-dihydrofuro[3,4-c][1,7]-naphthyridine-8-carboxamide and 4-amino-N-(cyanomethyl)-N-((3S)-6-(trifluoromethyl)-2,3-dihydro-1-benzofuran-3-yl)-1,3-dihydrofuro[3,4-c][1,7]-naphthyridine-8-carboxamide]
4030	54	CN(C(=O)c1cc2c(cc1F)nc(N)c1c2cnn1C)[C@@H]1COc2cc(C(F)(F)F)ccc21 [Example 258, 4-amino-7-fluoro-N,3-dimethyl-N-((3S)-6-(trifluoromethyl)-2,3-dihydro-1-benzofuran-3-yl)-3H-pyrazolo[3,4-c]quinoline-8-carboxamide]
4130	76	Cc1n[nH]c2c1c(N)nc1ccc(C(=O)N(C)[C@@H]3COCc4nc(C(F)(F)F)ccc43)cc12 [Example 308, 4-amino-N,3-dimethyl-N-((5S)-2-(trifluoromethyl)-5,8-dihydro-6H-pyrano[3,4-b]pyridin-5-yl)-1H-pyrazolo[4,3-c]quinoline-8-carboxamide]
342	18	CC(C)CN(C(=O)c1cc2c(cc1F)nc(N)c1c2cnn1C)[C@@H]1COCc2nc(C(F)(F)F)ccc21 [Example 517, 4-amino-7-fluoro-3-methyl-N-(2-methylpropyl)-N-((5S)-2-(trifluoromethyl)-5,8-dihydro-6H-pyrano[3,4-b]pyridin-5-yl)-3H-pyrazolo[3,4-c]quinoline-8-carboxamide]
1390	41	[2H]C([2H])([2H])N(C(=O)c1ccc2nc(N)c3c(c2c1)COC3)[C@@H]1COc2cc(C(F)(F)F)ccc21 (single isomer, unassigned) [Example 322]
2780	29	COCCOc1ccc2c(c1)OC[C@H]2N(C)C(=O)c1ccc2nc(N)c3cnn(C)c3c2c1 [Example 678, 4-amino-N-((3S)-6-(2-methoxyethoxy)-2,3-dihydro-1-benzofuran-3-yl)-N,1-dimethyl-1H-pyrazolo[4,3-c]quinoline-8-carboxamide]
198	7	Nc1nc2ccc(C(=O)N(CC3CC3)[C@@H]3COc4cc(C(F)(F)F)ccc43)cc2c2c1COC2 (single isomer, unassigned) [Example 535]

IC50 (HCT116 WT cells) [nM]	IC50 (HCT116 MTAP null cells) [nM]	Structure (SMILES)
447	13	CN(C(=O)c1cc2c3c(c(N)nc2cc1Cl)COC3)[C@@H]1COc2cc(C(F)(F)F)cc(F)c21 (single isomer, unassigned) [Example 566]
9230	198	CN(C(=O)c1cc2c(cn1)nc(N)c1c2cnn1C)[C@@H]1COCc2nc(C(F)(F)F)ccc21 [Example 304, 4-amino-N,3-dimethyl-N-((5S)-2-(trifluoromethyl)-5,8-dihydro-6H-pyrano[3,4-b]pyridin-5-yl)-3H-pyrazolo[3,4-c][1,7]naph-thyridine-8-carboxamide]
13400	320	CN(C(=O)c1cc2c(cc1F)nc(N)c1cnn(C)c12)[C@H]1CC(C)(C)Cc2nc(C(F)(F)F)ccc21 (single isomer, unassigned) [Example 435]
141	4	CCN(C(=O)c1ccc2nc(N)c3cnn(C)c3c2c1)[C@@H]1COCc2nc(C(F)(F)F)ccc21 [Example 501, 4-amino-N-ethyl-1-methyl-N-((5S)-2-(trifluoromethyl)-5,8-dihydro-6H-pyrano[3,4-b]pyridin-5-yl)-1H-pyrazolo[4,3-c]quinoline-8-carboxamide]
24500	396	COc1ccc2c(n1)OC[C@H]2N(C)C(=O)c1ccc2nc(N)c3c(c2c1)COC3 (single isomer, unassigned) [Example 524]
2630	41	Cc1nn(C)c2c1c(N)nc1cc(F)c(C(=O)N(C)[C@@H]3COCc4nc(C(F)(F)F)ccc43)cc12 [Example 314, 4-amino-7-fluoro-N,1,3-trimeth-yl-N-((5S)-2-(trifluoromethyl)-5,8-dihydro-6H-pyrano[3,4-b]-pyridin-5-yl)-1H-pyrazolo[4,3-c]quinoline-8-carboxamide]
12	3	CN(C(=O)c1cc2c(cc1Cl)nc(N)c1cnn(C)c12)[C@@H]1COCc2cc(C(F)(F)F)ccc21 [Example 294, 4-amino-7-chloro-N,1-dimethyl-N-((4S)-7-(trifluoromethyl)-3,4-dihydro-1H-2-benzopyran-4-yl)-1H-pyrazolo[4,3-c]quinoline-8-carboxamide]
25300	2370	CN(C(=O)c1cc2c3c(c(N)nc2cn1)COC3)[C@H]1COc2cc(Cl)c(Cl)cc21 [Example 210, 4-amino-N-((3R)-5,6-dichloro-2,3-dihydro-1-benzofuran-3-yl)-N-methyl-1,3-dihydrofuro[3,4-c][1,7]naphthyridine-8-carbox-amide]
159	8	CN(C(=O)c1cc2c(nc1Cl)nc(N)c1cnn(C)c12)[C@@H]1COCc2cc(C(F)(F)F)ccc21 [Example 296, 4-amino-7-chloro-N,1-dimethyl-N-((4S)-7-(trifluoromethyl)-3,4-dihydro-1H-2-benzopyran-4-yl)-1H-pyrazolo[4,3-c][1,8]naph-thyridine-8-carboxamide]
3000	61	CN(C(=O)c1cc2c3c(c(N)nc2cn1)COC3)[C@@H]1COc2cc(Cl)c(Cl)cc21 [Example 209, 4-amino-N-((3S)-5,6-dichloro-2,3-dihydro-1-benzofuran-3-yl)-N-methyl-1,3-dihydrofuro[3,4-c][1,7]naphthyridine-8-carbox-amide]
297	7	CN(C(=O)c1cc2c(cc1Cl)nc(N)c1cnn(C)c12)[C@@H]1CCc2nc(C(F)(F)F)ccc21 (single isomer, unassigned) [Example 385]
28000	4440	CN(C(=O)c1cc2c3c(c(N)nc2cn1)COC3)[C@H]1CCc2cc(OC(F)(F)F)ccc21 (single isomer, unassigned) [Example 342]
50000	11900	CN(C(=O)c1cc2c3c(c(N)nc2cn1)COC3)[C@H]1COc2nc(C(F)(F)F)ccc21 (single isomer, unassigned) [Example 336]
471	19	CCN(C(=O)c1cc2c(cc1C)nc(N)c1c2cnn1C)[C@@H]1COCc2nc(C(F)(F)F)ccc21 [Example 307, 4-amino-N-ethyl-3,7-dimethyl-N-((5S)-2-(trifluoromethyl)-5,8-dihydro-6H-pyrano[3,4-b]-pyridin-5-yl)-3H-pyrazolo-[3,4-c]quinoline-8-carboxamide]
11400	1380	CN(C(=O)c1cc2c3c(c(N)nc2cc1F)COC3)[C@H]1COc2cc(C(F)(F)F)ccc21 (single isomer, unassigned) [Example 553]
2220	49	CN(C(=O)c1cc2c3c(c(N)nc2cn1)COC3)[C@@H]1COCc2cc(C#N)ccc21 [Example 489, 4-amino-N-((4S)-7-cyano-3,4-dihydro-1H-2-benzopyran-4-yl)-N-methyl-1,3-dihydrofuro[3,4-c][1,7]naphthyridine-8-carboxamide]
